Data: patent US20030194434A1, “Bubbling tablet, bubbling bath additive tablet, bubbling washing detergent tablet, bubbling tablet for oral administration, and process for producing these” (priority 2000, published 2003)

Assay: Kinetic viscosity of saccharide solution, Ubbelohde viscosimeter, Japanese Pharmacopoeia 13th edition
Assay type: physicochemical
Settings: 0.5 g of component dissolved in 50 ml of water (25° C.)
Procedure: The value shown after each component in parenthesis is the kinetic viscosity of the solution in which 0.5 g of each component is dissolved in 50 ml of water (25° C.).

SMILES	kinetic viscosity [cSt]
OC[C@@H](O)[C@@H](O)[C@H](O)[C@H](O)CO [mannitol]	0.896
OC[C@@H](O)[C@@H](O)[C@H](O)[C@@H](O)CO [sorbitol]	0.897
OC[C@@H](O)[C@H](O)[C@@H](O)CO [xylitol]	0.904

Second part, the compound after the results:

kinetic viscosity [cSt]	SMILES
0.891	OC[C@H]1O[C@H](O[C@H]2O[C@H](CO)[C@@H](O)[C@H](O)[C@H]2O)[C@H](O)[C@@H](O)[C@@H]1O [trehalose]
0.904	OC[C@@H](O)[C@@H](O[C@H]1O[C@H](CO)[C@@H](O)[C@H](O)[C@H]1O)[C@H](O)[C@@H](O)CO [maltitol]
0.912	OC[C@H]1O[C@@](CO)(O[C@H]2O[C@H](CO)[C@@H](O)[C@H](O)[C@H]2O)[C@@H](O)[C@@H]1O [sucrose]
